In brackets after ≈: the same amount, converted by molar mass.
What was measured:
[1] = system: THP-1; assay: Cytotoxicity against human THP1 cells after 24 hrs by MTS assay; format: cell-based; conditions: THP-1, 24 h
[2] = system: Streptococcus pneumoniae; assay: Antibacterial activity against inducible resistance to macrolide and constitutive resistance to lincosamide Streptococcus pneumoniae 134 GR M by broth microdilution method; format: functional
[3] = system: Streptococcus pyogenes; assay: Antibacterial activity against inducible resistance to macrolide, licosamide and streptogramin Streptococcus pyogenes 11 by broth microdilution method; format: functional
[4] = system: Haemophilus influenzae; assay: Antibacterial activity against Haemophilus influenzae ATCC 49247 by broth microdilution method; format: functional
[5] = system: Streptococcus pneumoniae; assay: Antibacterial activity against constitutive MLS resistance Streptococcus pneumoniae 58 by broth microdilution method; format: functional
[6] = system: Staphylococcus aureus; assay: Antibacterial activity against inducible resistance to macrolide, licosamide, and streptogramin Staphylococcus aureus 90265/97 by broth microdilution method; format: functional
[7] = system: Streptococcus pyogenes; assay: Antibacterial activity against efflux-mediated macrolide-resistance Streptococcus pyogenes 2 by broth microdilution method; format: functional
[8] = system: HepG2; assay: Cytotoxicity against human HepG2 cells after 24 hrs by MTS assay; format: cell-based; conditions: HepG2, 24 h
[9] = system: Streptococcus pyogenes; assay: Antibacterial activity against constitutive MLS resistance Streptococcus pyogenes 166 GR-Micro by broth microdilution method; format: functional
[10] = system: Staphylococcus aureus; assay: Antibacterial activity against efflux-mediated macrolide-resistance Staphylococcus aureus PK1 by broth microdilution method; format: functional
[11] = system: Streptococcus pneumoniae; assay: Antibacterial activity against efflux-mediated macrolide-resistance Streptococcus pneumoniae Ci137 by broth microdilution method; format: functional

SMILES	IC50 [1] [µM]	MIC [2] [µg/mL]	MIC ([3]; read-out: MIC) [µg/mL]	MIC [4] [µg/mL]	MIC [5] [µg/mL]	MIC [6] [µg/mL]	MIC [7] [µg/mL]	IC50 [8] [µM]	MIC [9] [µg/mL]	MIC [10] [µg/mL]	MIC ([11]; read-out: MIC) [µg/mL]	MIC [3] [µg/mL]	MIC [11] [µg/mL]
CC[C@H]1OC(=O)[C@H](C)[C@@H](O[C@H]2C[C@@](C)(OC)[C@@H](OCCCOCCCCc3cc4c5c(c3)c(=O)c(C(=O)O)cn5C(C)(C)CO4)[C@H](C)O2)[C@H](C)[C@@H](O[C@@H]2O[C@H](C)C[C@H](N(C)C)[C@H]2O)[C@](C)(O)C[C@@H](C)CN(C)[C@H](C)[C@@H](O)[C@]1(C)O	11	0.5 (≈ 0.446 µM)	≤ 0.125	1 (≈ 0.893 µM)	≤ 0.125	≤ 0.125	≤ 0.125	46	0.5 (≈ 0.446 µM)	≤ 0.125	≤ 0.125	–	–
CC[C@H]1OC(=O)[C@H](C)[C@@H](O[C@H]2C[C@@](C)(OC)[C@@H](OCCCOCCCc3cc4c5c(c3)c(=O)c(C(=O)O)cn5C(C)(C)CO4)[C@H](C)O2)[C@H](C)[C@@H](O[C@@H]2O[C@H](C)C[C@H](N(C)C)[C@H]2O)[C@](C)(O)C[C@@H](C)CN(C)[C@H](C)[C@@H](O)[C@]1(C)O	40	≤ 0.125	–	2 (≈ 1.81 µM)	≤ 0.125	0.06 (≈ 0.0542 µM)	–	> 50	1 (≈ 0.904 µM)	0.13 (≈ 0.117 µM)	–	< 0.02	< 0.02
CC[C@H]1OC(=O)[C@H](C)[C@@H](O[C@H]2C[C@@](C)(OC)[C@@H](OCCCOCCCc3cc4c5c(c3)c(=O)c(C(=O)O)cn5C(C)(C)OC4)[C@H](C)O2)[C@H](C)[C@@H](O[C@@H]2O[C@H](C)C[C@H](N(C)C)[C@H]2O)[C@](C)(O)C[C@@H](C)CN(C)[C@H](C)[C@@H](O)[C@]1(C)O	40	≤ 0.125	≤ 0.125	1 (≈ 0.904 µM)	≤ 0.125	≤ 0.125	≤ 0.125	> 50	≤ 0.125	≤ 0.125	≤ 0.125	–	–
CC[C@H]1OC(=O)[C@H](C)[C@@H](O[C@H]2C[C@@](C)(OC)[C@@H](OCCCOCCCCCc3ccc4c(c3)c(=O)c(C(=O)O)cn4N(C)C)[C@H](C)O2)[C@H](C)[C@@H](O[C@@H]2O[C@H](C)C[C@H](N(C)C)[C@H]2O)[C@](C)(O)C[C@@H](C)CN(C)[C@H](C)[C@@H](O)[C@]1(C)O	8	0.5 (≈ 0.451 µM)	≤ 0.125	1 (≈ 0.903 µM)	≤ 0.125	≤ 0.125	≤ 0.125	13	0.25 (≈ 0.226 µM)	≤ 0.125	≤ 0.125	–	–
CC[C@H]1OC(=O)[C@H](C)[C@@H](O[C@H]2C[C@@](C)(OC)[C@@H](OCCCOCCCCCc3ccc4c(c3)c(=O)c(C(=O)O)cn4CC)[C@H](C)O2)[C@H](C)[C@@H](O[C@@H]2O[C@H](C)C[C@H](N(C)C)[C@H]2O)[C@](C)(O)C[C@@H](C)CN(C)[C@H](C)[C@@H](O)[C@]1(C)O	9	0.5 (≈ 0.458 µM)	≤ 0.125	2 (≈ 1.83 µM)	≤ 0.125	≤ 0.125	≤ 0.125	20	0.25 (≈ 0.229 µM)	≤ 0.125	≤ 0.125	–	–
CC[C@H]1OC(=O)[C@H](C)[C@@H](O[C@H]2C[C@@](C)(OC)[C@@H](OCCCOCCCCc3ccc4c(c3)c(=O)c(C(=O)O)cn4N(C)C)[C@H](C)O2)[C@H](C)[C@@H](O[C@@H]2O[C@H](C)C[C@H](N(C)C)[C@H]2O)[C@](C)(O)C[C@@H](C)CN(C)[C@H](C)[C@@H](O)[C@]1(C)O	20	0.5 (≈ 0.457 µM)	≤ 0.125	4 (≈ 3.66 µM)	0.25 (≈ 0.229 µM)	≤ 0.125	≤ 0.125	42	0.5 (≈ 0.457 µM)	≤ 0.125	≤ 0.125	–	–
CC[C@H]1OC(=O)[C@H](C)[C@@H](O[C@H]2C[C@@](C)(OC)[C@@H](OCCCOCCCCc3ccc4c(c3)c(=O)c(C(=O)O)cn4CC)[C@H](C)O2)[C@H](C)[C@@H](O[C@@H]2O[C@H](C)C[C@H](N(C)C)[C@H]2O)[C@](C)(O)C[C@@H](C)CN(C)[C@H](C)[C@@H](O)[C@]1(C)O	22	≤ 0.125	≤ 0.125	0.5 (≈ 0.464 µM)	≤ 0.125	≤ 0.125	≤ 0.125	46	≤ 0.125	≤ 0.125	≤ 0.125	–	–
CC[C@H]1OC(=O)[C@H](C)[C@@H](O[C@H]2C[C@@](C)(OC)[C@@H](OCCCOCCCCc3ccc4c(c3)c(=O)c(C(=O)O)cn4C3CC3)[C@H](C)O2)[C@H](C)[C@@H](O[C@@H]2O[C@H](C)C[C@H](N(C)C)[C@H]2O)[C@](C)(O)C[C@@H](C)CN(C)[C@H](C)[C@@H](O)[C@]1(C)O	20	≤ 0.125	≤ 0.125	0.5 (≈ 0.459 µM)	≤ 0.125	≤ 0.125	≤ 0.125	47	≤ 0.125	≤ 0.125	≤ 0.125	–	–

Source: ChEMBL document CHEMBL1221321, “Synthesis and properties of macrolones characterized by two ether bonds in the linker” (Bioorg Med Chem, 2010)
